Values of other authors as cited in patent US5691365A, “Nicotinic receptor antagonists in the treatment of neuropharmacological disorders” (University of Kentucky Research Foundation, priority 1995, dated 1997).

Experiments:
[1] = animal and human experiments; cited from earlier work
[2] = Ames type assays and chronic exposure studies; cited from earlier work
[3] = tested on: skin; settings: cited from earlier work
[4] = tested on: receptors that contain the α7, α8, or α9 subunits; settings: cited from earlier work

Row | Molecule | irritation or sensitization potential [1] | toxicity [2] | skin penetration enhancement [3] | selective blockade of nicotinic receptors with α7, α8 or α9 subunits [4]
1 | CN1CCCC1=O [N-methyl-2-pyrrolidone] | very little irritation or sensitization potential | have not revealed any significant toxicity | effective penetration enhancer | –
2 | α-bungarotoxin | – | – | – | selectively blocks receptors that contain the α7, α8, or α9 subunits
